From the CheMixHub viscosity set
Where “and” joins values, the source holds several entries; their conditions need not be identical. Equal values may be shown once.

Assay: xn = mol fraction of the nth substance listed

O.O.O=C(O)c1cc(S(=O)(=O)O)ccc1O + O
viscosity [mPa·s], 101 kPa
Conditions	x1 = 0.0004118	x1 = 0.0005979	x1 = 0.0007679	x1 = 0.001076
298.15 K	0.8998	0.9032	0.907	0.9134
308.15 K	0.7268	0.7304	0.7332	0.7386
318.15 K	0.597	0.6063	0.6087	0.6128

O=C([O-])[O-].[Na+].[Na+] + O
Conditions	viscosity
293.15 K, 101.33 kPa, x1 = 0.0032	1.085 mPa·s
293.15 K, 101.33 kPa, x1 = 0.0051	1.152 mPa·s
293.15 K, 101.33 kPa, x1 = 0.008	1.264 mPa·s
293.15 K, 101.33 kPa, x1 = 0.0115	1.414 mPa·s
293.15 K, 101.33 kPa, x1 = 0.0152	1.593 mPa·s
293.15 K, 101.33 kPa, x1 = 0.0197	1.844 mPa·s
293.15 K, 101.33 kPa, x1 = 0.0224	2.015 mPa·s
293.15 K, 101.33 kPa, x1 = 0.0255	2.232 mPa·s
293.15 K, 101.33 kPa, x1 = 0.0288	2.49 mPa·s
293.65 K, 100 kPa, x1 = 0.00502	1.145 mPa·s
298.15 K, 101 kPa, x1 = 0.0002	0.95 mPa·s
298.15 K, 101 kPa, x1 = 0.001	0.95 mPa·s
298.15 K, 101 kPa, x1 = 0.0027	0.99 mPa·s
298.15 K, 101 kPa, x1 = 0.00397	1.01 mPa·s
298.15 K, 101.33 kPa, x1 = 0.0032	0.96 mPa·s
298.15 K, 101.33 kPa, x1 = 0.0051	1.018 mPa·s
298.15 K, 101.33 kPa, x1 = 0.008	1.113 mPa·s
298.15 K, 101.33 kPa, x1 = 0.0115	1.242 mPa·s
298.15 K, 101.33 kPa, x1 = 0.0152	1.395 mPa·s
298.15 K, 101.33 kPa, x1 = 0.0197	1.609 mPa·s
298.15 K, 101.33 kPa, x1 = 0.0224	1.753 mPa·s
298.15 K, 101.33 kPa, x1 = 0.0255	1.937 mPa·s
298.15 K, 101.33 kPa, x1 = 0.0288	2.155 mPa·s
301.15 K, 100 kPa, x1 = 0.0101	1.115 mPa·s and 1.117 mPa·s
303.15 K, 101 kPa, x1 = 0.002	0.836 mPa·s
303.15 K, 101 kPa, x1 = 0.005	0.923 mPa·s
303.15 K, 101 kPa, x1 = 0.009	1.026 mPa·s
303.15 K, 101.33 kPa, x1 = 0.0032	0.864 mPa·s
303.15 K, 101.33 kPa, x1 = 0.0051	0.915 mPa·s
303.15 K, 101.33 kPa, x1 = 0.008	0.998 mPa·s
303.15 K, 101.33 kPa, x1 = 0.0115	1.11 mPa·s
303.15 K, 101.33 kPa, x1 = 0.0152	1.244 mPa·s
303.15 K, 101.33 kPa, x1 = 0.0197	1.429 mPa·s
303.15 K, 101.33 kPa, x1 = 0.0224	1.554 mPa·s
303.15 K, 101.33 kPa, x1 = 0.0255	1.712 mPa·s
303.15 K, 101.33 kPa, x1 = 0.0288	1.9 mPa·s
306.65 K, 100 kPa, x1 = 0.0101	0.987 mPa·s
308.15 K, 101 kPa, x1 = 0.002	0.763 mPa·s
308.15 K, 101 kPa, x1 = 0.005	0.842 mPa·s
308.15 K, 101 kPa, x1 = 0.009	0.931 mPa·s
308.65 K, 100 kPa, x1 = 0.00502	0.825 mPa·s
311.15 K, 100 kPa, x1 = 0.0168	1.1 mPa·s
311.15 K, 100 kPa, x1 = 0.02299	1.331 mPa·s and 1.332 mPa·s
313.15 K, 101 kPa, x1 = 0.0002	0.7 mPa·s
313.15 K, 101 kPa, x1 = 0.001	0.7 mPa·s
313.15 K, 101 kPa, x1 = 0.002	0.694 mPa·s
313.15 K, 101 kPa, x1 = 0.0027	0.72 mPa·s
313.15 K, 101 kPa, x1 = 0.00397	0.74 mPa·s
313.15 K, 101 kPa, x1 = 0.005	0.763 mPa·s
313.15 K, 101 kPa, x1 = 0.009	0.846 mPa·s

O=S(=O)([O-])c1ccc(O)cc1.[Na+] + O
viscosity [mPa·s], 101 kPa
Conditions	x1 = 9e-05	x1 = 0.00018	x1 = 0.0009	x1 = 0.0018	x1 = 0.00448	x1 = 0.00893	x1 = 0.0133	x1 = 0.0177
298.15 K	0.899	0.9	0.915	0.931	0.988	1.085	1.196	1.321
318.15 K	0.598	0.599	0.608	0.62	0.656	0.715	0.786	0.86

OC[C@@H](O)[C@H](O)[C@@H](O)CO + O
viscosity [mPa·s], 101.3 kPa
Conditions	x1 = 0.00359	x1 = 0.007154	x1 = 0.0107	x1 = 0.01421	x1 = 0.0177	x1 = 0.02631	x1 = 0.03478	x1 = 0.0431	x1 = 0.05127
293.15 K	1.06	1.14	–	1.32	–	1.72	2.09	2.42	2.85
303.15 K	0.85	0.91	0.99	1.04	–	1.33	1.53	1.8	2.1
313.15 K	0.69	0.78	0.79	0.83	0.9	1.02	1.19	1.38	1.6
323.15 K	0.58	0.62	–	0.69	0.75	0.85	0.96	1.1	1.25

COC(C)=O + O=C1CCCO1
298.15 K, 101.33 kPa
Conditions	viscosity [mPa·s]
x1 = 0.0471	1.585
x1 = 0.1055	1.467
x1 = 0.1514	1.365
x1 = 0.2015	1.254
x1 = 0.2517	1.16
x1 = 0.293	1.091
x1 = 0.4005	0.902
x1 = 0.4297	0.858
x1 = 0.4981	0.746
x1 = 0.5486	0.678
x1 = 0.5907	0.632
x1 = 0.701	0.52
x1 = 0.745	0.485
x1 = 0.7921	0.446
x1 = 0.8471	0.416
x1 = 0.9005	0.378
x1 = 0.9509	0.369

COCCOC + O=Cc1ccccc1
298.15 K, 101 kPa
Conditions	viscosity [mPa·s]
x1 = 0.1157	1.225
x1 = 0.2274	1.082
x1 = 0.3354	0.954
x1 = 0.4398	0.841
x1 = 0.5408	0.741
x1 = 0.6385	0.655
x1 = 0.7332	0.58
x1 = 0.8249	0.515
x1 = 0.9138	0.458

OCCNCCO + O=S1(=O)CCCC1
viscosity [mPa·s], 101 kPa
Conditions	x2 = 0.0999	x2 = 0.2999	x2 = 0.4687	x2 = 0.6712	x2 = 0.8322
303.15 K	262.7	125.4	63.49	14.99	12.62
323.15 K	73.14	32.73	15.33	9.455	7.362

COCCOC + O=[N+]([O-])c1ccccc1
298.15 K, 101 kPa
Conditions	viscosity [mPa·s]
x1 = 0.1318	1.472
x1 = 0.2546	1.27
x1 = 0.3693	1.087
x1 = 0.4766	0.929
x1 = 0.5774	0.793
x1 = 0.672	0.688
x1 = 0.7612	0.599
x1 = 0.8453	0.523
x1 = 0.9248	0.462

O=C(O)c1ccccc1 + O=[N+]([O-])c1ccccc1
viscosity [mPa·s], 101 kPa
Conditions	x1 = 0.09745	x1 = 0.108	x1 = 0.139	x1 = 0.1489	x1 = 0.175
308.15 K	1.746	–	–	–	–
313.15 K	1.626	1.626	1.675	1.746	1.746
318.15 K	1.503	–	–	1.611	–
323.15 K	1.397	–	–	1.492	–
